Laboratory results from patent US7977317B2, “Compositions and methods for modulating blood-brain barrier transport” (Raptor Pharmaceutical Inc., priority 2001, dated 2011).

Assays:
RBE4 cells = assay: Competition of [125I]-p97 binding on rat brain endothelial cells (RBE4); details: competitor 10 micromolar, 2 hrs at 4° C. (FIG. 4)
Procedure: FIG. 4. Binding of p97 on rat brain endothelial cells. Binding p97 was performed with RBE4 that were pre-incubated 2 hrs in Ringer-Hepes. For the binding experiments, cells in 24-well microplates were incubated for 2 h at 4° C. in Ringer/Hepes in the presence of [^125I]-p97 (25 nM) and 10 micromolar concentrations of cold-p97, transferrin or lactoferin, respectively. At the end of the incubation, the cells were gently washed at 4° C. three times with 4 ml of cold-PBS. RBE4 cells were then lysed with Triton X-100 and the associated radioactivity of with cell lysates was determined.
RBE4 cells were grown in monolayers in 24 wells plastic tissue culture flasks at 37° C. under 5% CO2 in minimum essential medium Alpha and Ham's F10 (1:1) supplemented with 10% heat inactivated fetal bovine serum. For p97 binding experiments, RBE4 cells were pre-incubated at 37° C. for 2 hrs in Ringer/Hepes. ^125I-p97 in 200 μl of Ringer/Hepes was added to RBE4 cells for 2 hrs at 4° C. in the presence or absence of high concentration of cold-p97, human holo-transferrin or human lactoferrin. After the incubation, the cells were washed 4 times with PBS and the ^125I-p97 associated with the cells was measured.

human brain capillaries = assay: Accumulation/uptake of [125I]-p97 in isolated human brain capillaries; type: binding
Procedure: FIG. 5. Accumulation of p97 in human brain capillaries. Accumulation of [^125I]-p97 was measured at 37° C. for 1 h in isolated human brain capillaries (100 μg/assay). The incubation medium contained [^125I]-p97 and a final concentration of 100 nM p97 in Ringer/Hepes solution. The accumulation of [^125I]-p97 was performed in the presence or absence of 5 μm cold-p97, holo-transferrin or lactoferrin. […] The suspension was filtered under vacuum through a […] pore size Millipore filter. The filter was rinsed with 8 ml of stop solution, and the radioactivity was counted. Nonspecific binding of the radioactivity to the capillaries was determined by the addition of the ice-cold stop solution to the capillaries before adding the incubation medium. This value was subtracted from accumulation values obtained following an 1 h incubation. The results were expressed as ng of [^125I]-p97 accumulated per μg of brain capillaries.
FIG. 16 illustrates the identification of a p97 receptor according to ligand specificity. FIG. 16a, Uptake of [^125I]-p97 into human brain capillaries. The uptake of [^125I]-p97 at 100 nM (control) into isolated human brain capillaries was measured for 1 h at 37° C. in the presence of a 50-fold molar excess of unlabelled p97, human holo-transferrin or human lactoferrin. (*[…] Student's t-test (n=5); FIG. 16b, Effect of RAP on [^125I]-p97 transcytosis across BBCEC monolayers. Apical-to-basal transport of [^125I]-p97 was measured in the presence (closed circles) or absence (open circles) of RAP (25 μg/ml) (n=5); FIG. 16c, Inhibition of bovine [^125I]-lactoferrin transport by p97. Transcytosis of bovine [^125I]-lactoferrin (50 nM) was measured in the presence (closed circles) or absence (open circles) of unlabelled p97 (5 μM) at 37° C. (n=3).
A. Isolation of human brain capillaries. Capillaries of the blood-brain barrier were isolated from human brain cortex by a procedure previously described by Dallaire, et al., J. Biol. Chem., 267:22323-22327 (1992) with slight modifications. Human brains were obtained post-mortem. The brain was cleared of meninges, superficial large blood vessels and choroid plexus. All the following procedures were performed at 4° C. The cerebral cortex was homogenized in 5 volumes of Ringer/Hepes solution with a Polytron (Brinkman Instruments, Rexdale, Ontario, Canada). The homogenate was mixed with an equal volume of Dextran T-70 (27 g in 100 ml of Ringer/Hepes). The suspension was centrifuged at 25,000 g for 10 min. The pellet was resuspended in 30 ml of Ringer/Hepes and passed through a 250 μm nylon mesh screen. […]
B. p97 accumulation in human brain capillaries. […] Accumulation of [^125I]-p97 was measured at 37° C. for 1 h in isolated human brain capillaries (100 μg/assay). […]

transferrin: transferrin (Tf), iron-binding serum protein used as comparator and competitor
Inhibition of [125I]-p97 binding to RBE4 cells (RBE4 cells): does not | Inhibition of [125I]-p97 binding/accumulation in human brain capillaries (human brain capillaries; competitor 5 micromolar, 100 nM p97, 1 h at 37° C. (FIG. 5)): no significant competition | Competition with p97 for receptor binding in human brain capillaries, repeat experiment (human brain capillaries; performed identically to FIG. 5 (FIG. 6)): not
